# Source: ChEMBL document CHEMBL5579788 (Bioorg Med Chem Lett, 2024)
# Test system: not listed separately
# Experiment: Cytotoxicity against HEK293-A cells assessed as reduction in cell viability by CCK-8 assay
# Assay type: toxicity, cell-based
# Settings: human
row,Compound,CC50
1,O=C(Nc1ccc(Cl)cc1)C1c2cccc[n+]2CC(=O)N1Cc1ccc2c(c1)OCO2 (centres undefined),> 300 µM
2,Cc1ccccc1NC(=O)C1c2cccc[n+]2CC(=O)N1C (centres undefined),> 300 µM
3,Cc1ccc(N2C(=O)C[n+]3ccccc3C2C(=O)Nc2ccc(Cl)cc2)cc1Br (centres undefined),> 300 µM

# Target: Replicase polyprotein 1ab (Severe acute respiratory syndrome coronavirus 2, UniProt P0DTD1)
# Experiment: (§1) Inhibition of SARS CoV-2 main protease
# Settings: not given
row,Compound,IC50
1,CCOc1ccc(NC(=O)C2c3cccc[n+]3CC(=O)N2c2ccccc2)cc1 (centres undefined),5 µM
2,Cc1cc(C)cc(N2C(=O)C[n+]3ccccc3C2C(=O)Nc2ccc(Cl)cc2)c1 (centres undefined),8.8 µM
3,O=C(Nc1ccccc1)C1c2cccc[n+]2CC(=O)N1c1ccc(Br)cc1 (centres undefined),8.6 µM
4,O=C(Nc1ccccc1)C1c2cccc[n+]2CC(=O)N1c1ccccc1 (centres undefined),5.2 µM
5,Cc1ccccc1N1C(=O)C[n+]2ccccc2C1C(=O)Nc1ccccc1 (centres undefined),5.6 µM
6,Cc1cccc(N2C(=O)C[n+]3ccccc3C2C(=O)Nc2ccccc2)c1 (centres undefined),6.1 µM
7,O=C(Nc1ccc(Cl)cc1)C1c2cccc[n+]2CC(=O)N1Cc1ccc2c(c1)OCO2 (centres undefined),6.9 µM
8,Cc1ccccc1NC(=O)C1c2cccc[n+]2CC(=O)N1C (centres undefined),4 µM
9,CC(C)(C)C(=O)N[C@H](C(=O)N1CC2(C[C@H]1C(=O)N[C@H](C#N)C[C@@H]1CCNC1=O)SCCS2)C(C)(C)C,0.022 µM
10,O=C(Nc1ccc(Cl)cc1)C1c2cccc[n+]2CC(=O)N1c1ccc(Br)cc1 (centres undefined),8.5 µM
11,Cc1ccc(N2C(=O)C[n+]3ccccc3C2C(=O)Nc2ccc(Cl)cc2)cc1Br (centres undefined),4.5 µM
12,Cc1cccc(C)c1NC(=O)C1c2cccc[n+]2CC(=O)N1C (centres undefined),8.3 µM
13,O=C1C2C3C=CC(CO)(O3)C2C(=O)N1c1cc(C(F)(F)F)ccc1Cl (centres undefined),4.4 µM
14,Cc1ccc(N2C(=O)C[n+]3ccccc3C2C(=O)Nc2ccccc2C)cc1 (centres undefined),6.1 µM
15,O=C(Nc1ccc(Cl)cc1)C1c2cccc[n+]2CC(=O)N1c1cccc(Cl)c1 (centres undefined),5.1 µM
16,O=C(Nc1ccc(Cl)cc1)C1c2cccc[n+]2CC(=O)N1c1ccc(Cl)cc1 (centres undefined),9.6 µM
17,CN1C(=O)C[n+]2ccccc2C1C(=O)Nc1ccccc1 (centres undefined),8.9 µM

# Target: Replicase polyprotein 1ab (Severe acute respiratory syndrome coronavirus 2) (UniProt P0DTD1)
# Experiment: as §1
# Settings: not given
row,Compound,inhibition
1,Cc1cccc(N2C(=O)C[n+]3ccccc3C2C(=O)Nc2ccccc2)c1 (centres undefined),Dose-Dependent Effect
2,O=C1C2C3C=CC(CO)(O3)C2C(=O)N1c1cc(C(F)(F)F)ccc1Cl (centres undefined),Dose-Dependent Effect

# Test system: SARS-CoV-2
# Experiment: Antiviral activity against wild type SARS-CoV-2 infected in Vero E6 cells assessed as inhibition of viral induced cytopathic effect incubated for 72 hrs by MTT assay
# Assay type: functional, organism-based
# Settings: Severe acute respiratory syndrome coronavirus 2, Vero C1008, 72 h
row,Compound,EC50
1,O=C(NC1CCCC1)C(=O)[C@H](CC1CCNC1=O)NC(=O)[C@@H]1[C@H]2CCC[C@H]2CN1C(=O)[C@@H](NC(=O)C(F)(F)F)C1CCCCC1 (some centres undefined),0.095 µM

# Target: Replicase polyprotein 1ab (Severe acute respiratory syndrome coronavirus 2) (UniProt P0DTD1)
# Experiment: Inhibition of SARS CoV-2 main protease at 10 uM relative to control
# Settings: not given
row,Compound,inhibition
1,Cc1ccc(N2C(=O)C[n+]3ccccc3C2(C)C(=O)Nc2ccc(Cl)cc2)cc1 (centres undefined),< 20%
2,CCOc1ccc(NC(=O)C2c3cccc[n+]3CC(=O)N2c2ccccc2)cc1 (centres undefined),80.4%
3,Cc1cccc(C)c1NC(=O)C1c2cccc[n+]2CC(=O)N1c1cccc(C(F)(F)F)c1 (centres undefined),< 20%
4,Cc1cc(C)cc(N2C(=O)C[n+]3ccccc3C2C(=O)Nc2ccc(Cl)cc2)c1 (centres undefined),75.7%
5,O=C(Nc1ccccc1)C1c2cccc[n+]2CC(=O)N1c1ccc(Br)cc1 (centres undefined),71.3%
6,O=C(Nc1ccccc1)C1c2cccc[n+]2CC(=O)N1c1ccccc1 (centres undefined),84.3%
7,Cc1ccccc1NC(=O)C1c2cccc[n+]2CC(=O)N1c1c(C)cccc1C (centres undefined),< 20%
8,Cc1ccccc1N1C(=O)C[n+]2ccccc2C1C(=O)Nc1ccccc1 (centres undefined),78.7%
9,CCN1C(=O)C[n+]2ccccc2C1C(=O)Nc1c(C)cccc1C (centres undefined),< 20%
10,Cc1cccc(N2C(=O)C[n+]3ccccc3C2C(=O)Nc2ccccc2)c1 (centres undefined),80.5%
11,O=C(Nc1ccc(Cl)cc1)C1c2cccc[n+]2CC(=O)N1Cc1ccc2c(c1)OCO2 (centres undefined),72.5%
12,C=CCN1C(=O)C[n+]2ccccc2C1C(=O)Nc1c(C)cccc1C (centres undefined),< 20%
13,Cc1ccccc1NC(=O)C1c2cccc[n+]2CC(=O)N1C (centres undefined),75.3%
14,COc1ccc(N2C(=O)C[n+]3ccccc3C2C(=O)Nc2ccc(Cl)cc2)cc1 (centres undefined),57.7%
15,COc1ccccc1N1C(=O)C[n+]2ccccc2C1C(=O)Nc1c(C)cccc1C (centres undefined),< 20%
16,Cc1ccc(N2C(=O)C[n+]3ccccc3C2C(=O)Nc2c(C)cccc2C)cc1Cl (centres undefined),< 20%
17,COc1ccc(NC(=O)C2c3cccc[n+]3CC(=O)N2c2ccccc2O)cc1 (centres undefined),26.5%
18,CCOc1ccc(N2C(=O)C[n+]3ccccc3C2C(=O)Nc2ccc(Cl)cc2)cc1 (centres undefined),47.2%
19,Cc1cccc(C)c1NC(=O)C1(C)c2cccc[n+]2CC(=O)N1c1ccc(Cl)cc1 (centres undefined),32.1%

row,Compound,inhibition
1,CCCN1C(=O)C[n+]2ccccc2C1C(=O)Nc1c(C)cccc1C (centres undefined),< 20%
2,Cc1cc(C)cc(N2C(=O)C[n+]3ccccc3C2C(=O)Nc2ccccc2C)c1 (centres undefined),66.6%
3,O=C(Nc1ccc(Cl)cc1)C1c2cccc[n+]2CC(=O)N1c1ccc(Br)cc1 (centres undefined),82.2%
4,CCOc1ccc(NC(=O)C2c3cccc[n+]3CC(=O)N2c2ccc(OCC)cc2)cc1 (centres undefined),21.7%
5,CCOc1ccc(NC(=O)C2c3cccc[n+]3CC(=O)N2c2ccc(OC)cc2)cc1 (centres undefined),30%
6,Cc1ccc(N2C(=O)C[n+]3ccccc3C2C(=O)Nc2ccc(Cl)cc2)cc1Br (centres undefined),78.2%
7,Cc1cccc(C)c1NC(=O)C1c2cccc[n+]2CC(=O)N1C (centres undefined),85.8%
8,Cc1ccc(N2C(=O)C[n+]3ccccc3C2C(=O)Nc2ccccc2C)cc1 (centres undefined),83%
9,O=C(Nc1ccc(Cl)cc1)C1c2cccc[n+]2CC(=O)N1c1cccc(Cl)c1 (centres undefined),84.5%
10,Cc1cccc(C)c1NC(=O)C1c2cccc[n+]2CC(=O)N1CCO (centres undefined),< 20%
11,Cc1cccc(C)c1NC(=O)C1c2cccc[n+]2CC(=O)N1c1cccc(Cl)c1 (centres undefined),31%
12,O=C(Nc1ccc(Cl)cc1)C1c2cccc[n+]2CC(=O)N1c1ccc(Cl)cc1 (centres undefined),75.7%
13,CCc1cccc(C)c1N1C(=O)C[n+]2ccccc2C1C(=O)Nc1ccccc1C (centres undefined),< 20%
14,Cc1cccc(C)c1NC(=O)C1c2cccc[n+]2CC(=O)N1Cc1ccc2c(c1)OCO2 (centres undefined),< 20%
15,Cc1cccc(C)c1NC(=O)C1c2cccc[n+]2CC(=O)N1c1ccc2c(c1)OCO2 (centres undefined),< 20%
16,CC1(C(=O)Nc2ccc(Cl)cc2)c2cccc[n+]2CC(=O)N1c1ccc(Cl)cc1 (centres undefined),< 20%
17,CN1C(=O)C[n+]2ccccc2C1C(=O)Nc1ccccc1 (centres undefined),93.3%
18,Cc1cccc(C)c1NC(=O)C1c2cccc[n+]2CC(=O)N1c1ccc(Cl)cc1 (centres undefined),50.1%

# Target: Replicase polyprotein 1ab (Severe acute respiratory syndrome coronavirus 2) (UniProt P0DTD1)
# Experiment: Inhibition of SARS CoV-2 main protease at 50 uM relative to control
# Settings: not given
row,Compound,inhibition
1,Cc1cccc(N2C(=O)C[n+]3ccccc3C2C(=O)Nc2ccccc2)c1 (centres undefined),> 50%
2,O=C1C2C3C=CC(CO)(O3)C2C(=O)N1c1cc(C(F)(F)F)ccc1Cl (centres undefined),> 50%

# Test system: SARS-CoV-2
# Experiment: Antiviral activity against SARS-CoV-2
# Assay type: functional, organism-based
# Settings: Severe acute respiratory syndrome coronavirus 2
row,Compound,EC50
1,O=C[C@H](C[C@@H]1CCNC1=O)NC(=O)[C@H](Cc1cccc(F)c1)NC(=O)c1cc2ccccc2[nH]1,0.72 µM
2,CC(C)(C)C(=O)N[C@H](C(=O)N1CC2(C[C@H]1C(=O)N[C@H](C#N)C[C@@H]1CCNC1=O)SCCS2)C(C)(C)C,0.57 µM
